Source: patent US20260325541A1, “BENZGALANTAMINE FOR TREATING PERSISTENT POST-CONCUSSION SYMPTOMS” (Alpha Cognition Inc., priority 2023, published 2026)
Counter-ions that a name gives are not always drawn.

Legend:
E. coli ATCC 8739 = assay: USP 51 antimicrobial effectiveness test, E. coli; format: cell-based, Escherichia coli; conditions: for CFU/mL: initial 9.1 × 10^5 CFU/mL, 22.5±2.5 °C; for Log Reduction: initial log10 6.0
Protocol: (§1) As shown in WO2022236396A1, in order to assess the anti-microbial properties of ALPHA-1062, the USP (US Pharmacopeia) Chapter 51 Preservative Challenge Test (USP 51) was employed. The USP 51 is a common method used to gauge preservative effectiveness. Much like a Preservative Challenge Screen, it is used to evaluate the effect of preservatives in cosmetics, personal care products, and drug products. Preservatives are typically antimicrobial ingredients that are added to aqueous product formulations to help maintain the safety of the product by inhibiting the growth and reducing the number of microbial contaminants.
(§2) In the context of the present invention, ALPHA-1062 (in the form of the gluconate salt) was assessed in place of (as) a preservative. No additional preservative was added to the ALPHA-1062 gluconate preparation, rather an anti-microbial effect of the agent itself (ALPHA-1062) was assessed. ALPHA-1062 is therefore the anti-microbial agent in the assay and experiments described below.
(§3) The USP 51 challenge test utilizes 5 microorganisms (3 bacteria and 2 fungi) for challenge testing. Each of the microorganisms are known strains of pathogenic microorganisms and they represent a wide range of microbial physiologies.
(§4) Cultures of the following microorganisms were applied, as per standard guidelines for USP 51: Candida albicans (ATCC No. 10231), Aspergillus brasiliensis (ATCC No. 16404), Escherichia coli (ATCC No. 8739), Pseudomonas aeruginosa (ATCC No. 9027), and Staphylococcus aureus (ATCC No. 6538). […]
(§5) The initial concentration of viable microorganisms in each test preparation was estimated based on the concentration of microorganisms in each of the standardized inoculums, as determined by the plate-count method.
(§6) The inoculated containers were incubated at 22.5±2.5 °C and each container was sampled at the appropriate intervals, as specified in Table 3. Any changes observed in the appearance of the culture was recorded at these intervals. By using the plate-count procedure, the number of CFU present in each test preparation was determined for the applicable intervals.
(§7) An inactivator (neutralizer) of the specific antimicrobial was incorporated in the plate count or in the appropriate dilution prepared for plating. These conditions were determined in the validation study for that sample based upon the conditions of media and microbial recovery incubation times listed in Table 2. Using the calculated concentrations of CFU per mL present at the start of the test, the change in log 10 values of the concentration of CFU per mL for each microorganism was calculated at the applicable test intervals, and the changes were expressed in terms of log reductions.

P. aeruginosa ATCC 9027 = assay: USP 51 antimicrobial effectiveness test, P. aeruginosa; format: cell-based, Pseudomonas aeruginosa; conditions: for CFU/mL: initial 2.9 × 10^5 CFU/mL, 22.5±2.5 °C; for Log Reduction: initial log10 5.5
Protocol: as §1, §2, §3, §4, §5, §6, §7

S. aureus ATCC 6538 = assay: USP 51 antimicrobial effectiveness test, S. aureus; format: cell-based, Staphylococcus aureus; conditions: for CFU/mL: initial 4.0 × 10^5 CFU/mL, 22.5±2.5 °C; for Log Reduction: initial log10 5.6
Protocol: as §1, §2, §3, §4, §5, §6, §7

C. albicans ATCC 10231 = assay: USP 51 antimicrobial effectiveness test, C. albicans; format: cell-based, Candida albicans; conditions: for CFU/mL: initial 6.7 × 10^5 CFU/mL, 22.5±2.5 °C; for Log Reduction: initial log10 5.8
Protocol: as §1, §2, §3, §4, §5, §6, §7

[1] = tested on: A. brasiliensis ATCC 16404; assay: USP 51 antimicrobial effectiveness test, A. brasiliensis; format: cell-based, Aspergillus brasiliensis; conditions: for CFU/mL: initial 2.2 × 10^5 CFU/mL, 22.5±2.5 °C; for Log Reduction: initial log10 5.3
Protocol: as §1, §2, §3, §4, §5, §6, §7

[2] = tested on: all 5 organisms tested in the USP 51; assay: USP 51 overall assessment against Category 2 criteria; format: cell-based; conditions: USP 51, Category 2 criteria, 14 and 28 days
Protocol: as §1
In the context of the present invention, ALPHA-1062 (in the form of the gluconate salt) was assessed in place of (as) a preservative. No additional preservative was added to the ALPHA-1062 gluconate preparation, rather an anti-microbial effect of the agent itself (ALPHA-1062) was assessed. […]
as §5
The inoculated containers were incubated at 22.5±2.5 °C and each container was sampled at the appropriate intervals, as specified in Table 3. Any changes observed in the appearance of the culture was recorded at these intervals. […]

[3] = Body weight / overt toxicity over the 35-day study; format: in vivo, male Wistar rats
Excerpt: Young adult (2-3 months) male Wistar rats were subjected to a moderate TBI induced by controlled cortical impact (CCI). Animal models of TBI including the CCI model and functional tests have been described in detail in peer reviewed publications (Xiong et al., 2013, Nat Rev Neurosci.; Zhang et al., 2016, J Neurosurg.; Zhang et al., 2016, Neurochem Int.; Zhang et al., 2021, J Neurotrauma). Injury consisted of a single impact at 4.0 m/see, 2.5 mm deformation to the left parietal cortex. In addition, a group of animals was left healthy/not injured to serve as a healthy control.
The animals were divided into 3 groups: • 1) TBI+Vehicle (purified water, n=10) • 2) TBI+ALPHA-1062 (4.5 mg/kg) (n=10) • 3) Healthy/not injured and not treated (Sham surgery) (n=10)
The substance used in this study was ALPHA-1062 at 4.5 mg/kg. As control treatment (vehicle) purified water was administered intranasally (IN). The ALPHA-1062 and the control treatment were initiated 2 hours after injury and continued twice daily (with a 6-hour interval) for 35 consecutive days.
Data were evaluated for normality applying the following statistical analyses: Data transformation was considered if the data was abnormal. The data was analyzed with GraphPad Prism Software 9.0. All data herein is presented as the mean±standard deviation (SD) and were analyzed with one-way analysis of variance (ANOVA) or two-way ANOVA (treatment x time) followed by post hoc Tukey's multiple comparison test (more than two groups). Differences between means are considered statistically significant when p is <0.05.

[4] = tested on: mice after repeated blast mild traumatic brain injury (blast mTBI); assay: Thermal Gradient Ring (TGR) assessment of heat/pain sensitivity after repetitive blast mTBI; format: in vivo, C57Bl/6 mice; conditions: after one month of treatment, 3.0 mg/kg
[5] = intra-nasal administration, similar doses; cited from earlier work
[6] = Solid-state stability of Form A; format: physicochemical
Protocol: As described therein, polymorphic studies were conducted with benzgalantamine utilizing a variety of solvents and crystallization conditions (Table 5 of WO 2022/150917) and subsequent XRPD analyses. Seven unique crystalline materials were observed and isolated, and were designated as Forms A, B, C, D and Materials E, F and G (FIG. 6 of WO 2022/150917). Amorphous material was also observed. Form A of benzgalantamine is an anhydrous crystalline material with concomitant melt/decomposition onset near 117 °C. […] Based upon WO 2022/150917, anhydrous Form A, stored under appropriate temperature and humidity conditions to maintain its Form and stability, appears best suited of the various benzgalantamine forms to be used in formulation and manufacture of drug products.
As used herein, the term stable may relate to either chemical stability or to polymorph stability. Polymorph stability refers to the likelihood of a polymorph form remaining in its specific crystalline state under suitable storage conditions. For example, a stable polymorph form will maintain at least about 95% by weight, preferably at least about 98% by weight, and more preferably at least about 99% by weight or more of the crystalline form, in other words the form remains unchanged after storage under the indicated conditions for the indicated time.

[7] = 43% RH (RT); from WO 2022/150917; cited from earlier work
[8] = tested on: patients with chronic TBI; conditions: oral, cited from earlier work; for adverse effects: chronic TBI patients; for TBI-related symptoms: patient reported, not placebo controlled
pre-clinical models = conditions: cited from earlier work
[9] = tested on: microglial phagocytic activity; conditions: cited from earlier work
[10] = nausea, vomiting and diarrhea; Cochrane review 2006; cited from earlier work

## COc1ccc2c3c1O[C@H]1C[C@@H](OC(=O)c4ccccc4)C=C[C@@]31CCN(C)C2 [ALPHA-1062 Gluconate, (4aS,6R,8aS)-4a,5,6,9,10,11,12-hexahydro-3-methoxy-11-methyl-6H-benzofuro[3a,3,2-ef][2]benzazepin-6-benzoate-gluconate salt]
E. coli ATCC 8739; Day 14
  CFU/mL: <10 CFU/mL
  Log Reduction: 5.0 Log
E. coli ATCC 8739; Day 28
  CFU/mL: <10 CFU/mL
  Log Reduction: 5.0 Log
P. aeruginosa ATCC 9027; Day 14
  CFU/mL: <10 CFU/mL
  Log Reduction: 4.5 Log
P. aeruginosa ATCC 9027; Day 28
  CFU/mL: <10 CFU/mL
  Log Reduction: 4.5 Log
S. aureus ATCC 6538; Day 14
  CFU/mL: <10 CFU/mL
  Log Reduction: 4.6 Log
S. aureus ATCC 6538; Day 28
  CFU/mL: <10 CFU/mL
  Log Reduction: 4.6 Log
C. albicans ATCC 10231; Day 14
  CFU/mL: <10 CFU/mL
  Log Reduction: 4.8 Log
C. albicans ATCC 10231; Day 28
  CFU/mL: <10 CFU/mL
  Log Reduction: 4.8 Log
[1]; Day 14
  CFU/mL: 1.6 × 10^2 CFU/mL
  Log Reduction: 3.1 Log
[1]; Day 28
  CFU/mL: 1.5 × 10^2 CFU/mL
  Log Reduction: 3.1 Log
[2]
  anti-microbial effect: strong anti-microbial effect against all 5 organisms tested in the USP 51

## COc1ccc2c3c1O[C@H]1C[C@@H](OC(=O)c4ccccc4)C=C[C@@]31CCN(C)C2 [ALPHA-1062, (4aS,6R,8aS)-5,6,9,10,11,12-hexahydro-3-methoxy-11-methyl-4aH-[1]benzofuro[3a,3,2-ef][2]benzazepin-6-ol benzoate]
[3]; 35 days, 4.5 mg/kg IN twice daily
  overt toxicity vs vehicle animals: did not show overt toxicity
[3]; days 1-7 (D1-7)
  body weight change vs day zero: significant body weight loss (p<0.05)
[3]; days 29-35 (D29-35)
  body weight change vs day zero: significant body weight gain
[3]; each time point D0-D35, 4.5 mg/kg IN twice daily, FIG. 10
  body weight vs vehicle treated or untreated animals: no significant alterations in body weight compared to vehicle treated or untreated animals
[4]
  persistence of structural/functional benefit following removal of drug treatment: at least 2 months
[5]
  bioavailability in the brain vs oral galantamine: higher bioavailability in the brain, than similar doses of oral galantamine

## COc1ccc2c3c1O[C@H]1C[C@@H](OC(=O)c4ccccc4)C=C[C@@]31CCN(C)C2.O=C(O)C(O)C(O)C(O)C(O)CO [Form A]
[6]; appropriate storage conditions
  chemical stability: good chemical stability
[6]; room temperature, at or under about 43% RH or less than 0.12 aw, multiple months
  polymorph stability on storage: good stability
[7]
  duration for which Form A was sustained: up to 5 days
  kinetic stability in the solid state: kinetically stable in the solid state

## COc1cc2c(cc1OC)C(=O)C(CC1CCN(Cc3ccccc3)CC1)C2 (centres unmarked) [donepezil]
[8]
  adverse effects: about half of all patients experienced disturbing adverse effects
  TBI-related symptoms: subjective improvement of TBI-related symptoms

## COc1ccc2c3c1O[C@H]1C[C@@H](O)C=C[C@@]31CCN(C)C2 [galantamine]
pre-clinical models; active metabolite of benzgalantamine
  pre-clinical effects: increase cholinergic activation, reduce neuroinflammation, improve blood-brain barrier function, activate cell survival signalling pathways as well as increase neurogenesis
pre-clinical models
  glutamate and beta-amyloid toxicity: decrease both glutamate and beta-amyloid toxicity
[9]
  microglial phagocytic activity: activation of microglial phagocytic activity
[8]
  adverse effects: about half of all patients experienced disturbing adverse effects
  TBI-related symptoms: subjective improvement of TBI-related symptoms
[10]
  gastro-intestinal (GI) side effects: clinically significant level of mechanism-based gastro-intestinal (GI) side effects

## CCN(C)C(=O)Oc1cccc([C@H](C)N(C)C)c1 [rivastigmine]
[8]
  adverse effects: about half of all patients experienced disturbing adverse effects
  TBI-related symptoms: subjective improvement of TBI-related symptoms
